Test results reported in PubChem BioAssay (NCI).
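Step 1: Grow cells in 96-well plates. Step 2: Expose to compound for 48 hours at 5 concentrations. Step 3: Interpolate endpoints linearly; if unreached, use highest concentration. At the TGI there is no net growth.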

Tests used:
Test in all cases: NCI anticancer screen, dose series, 48 h
[1] = test system: 786-0 renal
[2] = test system: A498 renal
[3] = test system: A549 NSCLC
[4] = test system: ACHN renal
[5] = test system: BT-549 breast
[6] = test system: CAKI-1 renal
[7] = test system: CCRF-CEM leukemia
[8] = test system: COLO 205 colon
[9] = test system: DU-145 prostate
[10] = test system: EKVX NSCLC
[11] = test system: HCC-2998 colon
[12] = test system: HCT-116 colon
[13] = test system: HCT-15 colon
[14] = test system: HOP-62 NSCLC
[15] = test system: HOP-92 NSCLC
[16] = test system: HS 578T breast
[17] = test system: K-562 leukemia
[18] = test system: KM12 colon
[19] = test system: LOX IMVI melanoma
[20] = test system: M14 melanoma
[21] = test system: MCF7 breast
[22] = test system: MDA-MB-231 breast
[23] = test system: MDA-MB-435
[24] = test system: MDA-N
[25] = test system: MOLT-4 leukemia
[26] = test system: NCI-H226 lung
[27] = test system: NCI-H23 lung
[28] = test system: NCI-H460 lung
[29] = test system: NCI/ADR-RES ovarian
[30] = test system: OVCAR-3 ovarian
[31] = test system: OVCAR-4 ovarian
[32] = test system: OVCAR-5 ovarian
[33] = test system: OVCAR-8 ovarian
[34] = test system: RPMI-8226 leukemia
[35] = test system: RXF 393 renal
[36] = test system: SF-268 CNS
[37] = test system: SF-295 CNS
[38] = test system: SF-539 CNS
[39] = test system: SK-MEL-2 melanoma
[40] = test system: SK-MEL-28 melanoma
[41] = test system: SK-MEL-5 melanoma
[42] = test system: SK-OV-3 ovarian
[43] = test system: SN12C renal
[44] = test system: SNB-19 CNS
[45] = test system: SR leukemia
[46] = test system: SW-620 colon
[47] = test system: T-47D breast
[48] = test system: TK-10 renal
[49] = test system: U251 CNS
[50] = test system: UACC-257 melanoma
[51] = test system: UACC-62 melanoma
[52] = test system: UO-31 renal
[53] = test system: IGROV1 ovarian
[54] = test system: MALME-3M melanoma
[55] = test system: NCI-H522 lung

In the case of `NS(=O)(=O)c1nnc(NS(=O)(=O)c2ccc(F)cc2)s1`, the TGI [1] is reported as > 100 µM, the TGI [2] is reported as > 100 µM and the TGI [3] is reported as > 100 µM. The TGI [4] was > 100 µM, the TGI [5] was > 100 µM and the TGI [6] was > 100 µM. The TGI [7] was > 100 µM, the TGI [8] was > 100 µM and the TGI [9] was > 100 µM. The TGI [10] was > 100 µM, the TGI [11] was > 100 µM and the TGI [12] was > 100 µM. For the same compound, the TGI [13] was > 100 µM, the TGI [14] was > 100 µM and the TGI [15] was > 100 µM. The TGI [16] was > 100 µM, the TGI [17] was > 100 µM and the TGI [18] was > 100 µM. For the same compound, the TGI [19] was > 100 µM, the TGI [20] was > 100 µM and the TGI [21] was > 100 µM. The TGI [22] was > 100 µM, the TGI [23] was > 100 µM and the TGI [24] was > 100 µM. The TGI [25] was > 100 µM, the TGI [26] was > 100 µM and the TGI [27] was > 100 µM. The TGI [28] was > 100 µM, the TGI [29] was > 100 µM and the TGI [30] was > 100 µM. The TGI [31] was > 100 µM, the TGI [32] was > 100 µM and the TGI [33] was > 100 µM. The TGI [34] was > 100 µM, the TGI [35] was > 100 µM and the TGI [36] was > 100 µM. For the same compound, the TGI [37] was > 100 µM, the TGI [38] was > 100 µM and the TGI [39] was > 100 µM. The TGI [40] was > 100 µM, the TGI [41] was > 100 µM and the TGI [42] was > 100 µM. The TGI [43] was > 100 µM, the TGI [44] was > 100 µM and the TGI [45] was > 100 µM. The TGI [46] was > 100 µM, the TGI [47] was > 100 µM and the TGI [48] was > 100 µM. The TGI [49] was > 100 µM, the TGI [50] was > 100 µM and the TGI [51] was > 100 µM. For the same compound, the TGI [52] was > 100 µM.

With `COC(=O)/C1=C/c2c([nH]c3ccccc23)/C(C(=O)OC)=C\c2c1[nH]c1ccccc21` the TGI [1] was > 50 µM, the TGI [2] was > 50 µM and the TGI [3] was > 50 µM. For the same compound, the TGI [4] was > 50 µM, the TGI [5] was > 50 µM and the TGI [6] was > 50 µM. For the same compound, the TGI [8] was > 50 µM, the TGI [9] was > 50 µM and the TGI [10] was > 50 µM. The TGI [12] was > 50 µM, the TGI [13] was > 50 µM and the TGI [14] was > 50 µM. For the same compound, the TGI [16] was > 50 µM, the TGI [53] was 38.9 µM and the TGI [18] was > 50 µM. The TGI [19] was > 50 µM, the TGI [20] was > 50 µM and the TGI [54] was > 50 µM. For the same compound, the TGI [21] was > 50 µM, the TGI [22] was > 50 µM and the TGI [23] was > 50 µM. The TGI [24] was > 50 µM, the TGI [26] was > 50 µM and the TGI [27] was > 50 µM. For the same compound, the TGI [28] was > 50 µM, the TGI [55] was 22 µM and the TGI [29] was > 50 µM. The TGI [30] was > 50 µM, the TGI [32] was > 50 µM and the TGI [33] was > 50 µM. The TGI [35] was 33.3 µM, the TGI [36] was > 50 µM and the TGI [37] was > 50 µM. For the same compound, the TGI [38] was > 50 µM, the TGI [39] was > 50 µM and the TGI [41] was > 50 µM. The TGI [42] was > 50 µM, the TGI [43] was > 50 µM and the TGI [44] was > 50 µM. The TGI [46] was > 50 µM, the TGI [47] was > 50 µM and the TGI [48] was > 50 µM. For the same compound, the TGI [49] was > 50 µM, the TGI [50] was > 50 µM and the TGI [51] was > 50 µM. For the same compound, the TGI [52] was > 50 µM.
